How the values were obtained:
Assay type in all cases: in vivo
[1] = tested on: blackgrass (Alopecurus myosuroides); experiment: Test C postemergence, visual plant response rating
In short: (§1)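 Seeds sown in a loam–sand blend got a directed preemergence soil spray; postemergence plants (2–10 cm, one- to two-leaf stage) were sprayed with compound in a non-phytotoxic solvent plus surfactant. Injury was scored visually against untreated controls after about 10 d in a greenhouse on a 0–100 scale (100 = complete control).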

[2] = tested on: galium (catchweed bedstraw, Galium aparine); experiment: Test C postemergence, visual plant response rating
In short: as §1

[3] = tested on: wheat (Triticum aestivum); experiment: Test C postemergence, visual plant response rating
In short: as §1

[4] = tested on: ragweed (common ragweed, Ambrosia artemisiifolia); experiment: Test C postemergence, visual plant response rating
In short: as §1

[5] = tested on: Italian ryegrass (Lolium mutiflorum); experiment: Test C postemergence, visual plant response rating
In short: as §1

corn (Zea mays) = experiment: Test C postemergence, visual plant response rating
In short: as §1

[6] = tested on: pigweed (Amaranthus retroflexus); experiment: Test C postemergence, visual plant response rating
In short: as §1

kochia (Bassia scoparia) [7] = experiment: Test C postemergence, visual plant response rating
In short: as §1

[8] = tested on: foxtail, giant (giant foxtail, Setaria faberi); experiment: Test C postemergence, visual plant response rating
In short: as §1

[9] = tested on: barnyardgrass (Echinochloa crus-galli); experiment: Test C postemergence, visual plant response rating
In short: as §1

[10] = tested on: ragweed (common ragweed, Ambrosia artemisiifolia); experiment: Test C preemergence, visual plant response rating; settings: Test C, 0 is no effect, 100 is complete control
In short: as §1

[11] = tested on: Italian ryegrass (Lolium mutiflorum); experiment: Test C preemergence, visual plant response rating; settings: Test C, 0 is no effect, 100 is complete control
In short: as §1

[12] = tested on: pigweed (Amaranthus retroflexus); experiment: Test C preemergence, visual plant response rating; settings: Test C, 0 is no effect, 100 is complete control
In short: as §1

kochia (Bassia scoparia) [13] = experiment: Test C preemergence, visual plant response rating; settings: Test C, 0 is no effect, 100 is complete control
In short: as §1

[14] = tested on: foxtail, giant (giant foxtail, Setaria faberi); experiment: Test C preemergence, visual plant response rating; settings: Test C, 0 is no effect, 100 is complete control
In short: as §1

[15] = tested on: barnyardgrass (Echinochloa crus-galli); experiment: Test C preemergence, visual plant response rating; settings: Test C, 0 is no effect, 100 is complete control
In short: as §1

[16] = tested on: sedge umbrella (small-flower umbrella sedge, Cyperus difformis); experiment: Test D flooded paddy test, visual plant response rating; settings: 250 g ai/ha, scale 0 to 100 (0 no effect, 100 complete control), 13 to 15 d
In short: (§2)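 Greenhouse paddy assay scored on a 0–100 visual scale after 13 to 15 d, where 100 means complete control and a dash marks no result; dosing was into 3 cm floodwater over 2-leaf plants.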

rice (Oryza sativa) = experiment: as above; settings: 250 g ai/ha, scale 0 to 100 (0 no effect, 100 complete control), 13 to 15 d
In short: as §2

[17] = tested on: duck salad (Heteranthera limosa); experiment: as above; settings: 250 g ai/ha, scale 0 to 100 (0 no effect, 100 complete control), 13 to 15 d
In short: as §2

[18] = tested on: barnyardgrass (Echinochloa crus-galli); experiment: as above; settings: 250 g ai/ha, scale 0 to 100 (0 no effect, 100 complete control), 13 to 15 d
In short: as §2

[19] = Test C, postemergence, 125 g ai/ha

Row | Structure (SMILES) | Blackgrass plant response rating (0 to 100 scale) ([1]; Postemergence, 31 g ai/ha) | Blackgrass plant response rating (0 to 100 scale) [1, 19] | Galium plant response rating (0 to 100 scale) ([2]; Postemergence, 31 g ai/ha) | Galium plant response rating (0 to 100 scale) [2, 19] | Wheat plant response rating (0 to 100 scale) ([3]; Postemergence, 31 g ai/ha) | Wheat plant response rating (0 to 100 scale) [3, 19] | Ragweed plant response rating (0 to 100 scale) ([4]; Postemergence, 31 g ai/ha) | Ragweed plant response rating (0 to 100 scale) [4, 19] | Ryegrass, Italian plant response rating (0 to 100 scale) ([5]; Postemergence, 31 g ai/ha) | Ryegrass, Italian plant response rating (0 to 100 scale) [5, 19] | Corn plant response rating (0 to 100 scale) (corn (Zea mays); Postemergence, 31 g ai/ha) | Corn plant response rating (0 to 100 scale) (corn (Zea mays); [19]) | Pigweed plant response rating (0 to 100 scale) ([6]; Postemergence, 31 g ai/ha) | Pigweed plant response rating (0 to 100 scale) [6, 19] | Kochia plant response rating (0 to 100 scale) (kochia (Bassia scoparia) [7]; Postemergence, 31 g ai/ha) | Kochia plant response rating (0 to 100 scale) (kochia (Bassia scoparia) [7]; [19]) | Foxtail, Giant plant response rating (0 to 100 scale) ([8]; Postemergence, 31 g ai/ha) | Foxtail, Giant plant response rating (0 to 100 scale) [8, 19] | Barnyardgrass plant response rating (0 to 100 scale) ([9]; Postemergence, 31 g ai/ha) | Barnyardgrass plant response rating (0 to 100 scale) [9, 19] | other results
1 | C#CCON=C(c1cccc(OC(F)F)c1)c1c(O)c(C)nn(C)c1=O [Compound 201] | 10 | 50 | 50 | 80 | 0 | 40 | 10 | 30 | 30 | 60 | 0 | 0 | 20 | 70 | 40 | 70 | 20 | 40 | 10 | 40 | Ragweed plant response rating (0 to 100 scale) ([10]; 31 g ai/ha): 0; Ragweed plant response rating (0 to 100 scale) ([10]; 125 g ai/ha): 20; Ryegrass, Italian plant response rating (0 to 100 scale) ([11]; 31 g ai/ha): 10; Ryegrass, Italian plant response rating (0 to 100 scale) ([11]; 125 g ai/ha): 80; Pigweed plant response rating (0 to 100 scale) ([12]; 31 g ai/ha): 0; Pigweed plant response rating (0 to 100 scale) ([12]; 125 g ai/ha): 0; Kochia plant response rating (0 to 100 scale) (kochia (Bassia scoparia) [13]; 31 g ai/ha): 0; Kochia plant response rating (0 to 100 scale) (kochia (Bassia scoparia) [13]; 125 g ai/ha): 0; Foxtail, Giant plant response rating (0 to 100 scale) ([14]; 31 g ai/ha): 10; Foxtail, Giant plant response rating (0 to 100 scale) ([14]; 125 g ai/ha): 30; Barnyardgrass plant response rating (0 to 100 scale) ([15]; 31 g ai/ha): 0; Barnyardgrass plant response rating (0 to 100 scale) ([15]; 125 g ai/ha): 10; Plant response rating, Sedge, Umbrella (Flood) [16]: 0; Plant response rating, Rice (Flood) (rice (Oryza sativa)): 0; Plant response rating, Ducksalad (Flood) [17]: 0; Plant response rating, Barnyardgrass (Flood) [18]: 0
2 | CON=C(c1cccc(OCC(F)(F)F)c1)c1c(O)c(C)nn(C)c1=O [Compound 198] | 0 | 40 | 0 | 20 | 0 | 0 | 0 | 0 | 0 | 60 | 0 | 20 | 0 | 10 | 0 | 0 | 20 | 70 | 20 | 80 | Ragweed plant response rating (0 to 100 scale) ([10]; 31 g ai/ha): 0; Ragweed plant response rating (0 to 100 scale) ([10]; 125 g ai/ha): 0; Ryegrass, Italian plant response rating (0 to 100 scale) ([11]; 31 g ai/ha): 0; Ryegrass, Italian plant response rating (0 to 100 scale) ([11]; 125 g ai/ha): 70; Pigweed plant response rating (0 to 100 scale) ([12]; 31 g ai/ha): 0; Pigweed plant response rating (0 to 100 scale) ([12]; 125 g ai/ha): 0; Kochia plant response rating (0 to 100 scale) (kochia (Bassia scoparia) [13]; 31 g ai/ha): 0; Kochia plant response rating (0 to 100 scale) (kochia (Bassia scoparia) [13]; 125 g ai/ha): 0; Foxtail, Giant plant response rating (0 to 100 scale) ([14]; 31 g ai/ha): 0; Foxtail, Giant plant response rating (0 to 100 scale) ([14]; 125 g ai/ha): 70; Barnyardgrass plant response rating (0 to 100 scale) ([15]; 31 g ai/ha): 0; Barnyardgrass plant response rating (0 to 100 scale) ([15]; 125 g ai/ha): 40; Plant response rating, Sedge, Umbrella (Flood) [16]: 0; Plant response rating, Rice (Flood) (rice (Oryza sativa)): 0; Plant response rating, Ducksalad (Flood) [17]: 0; Plant response rating, Barnyardgrass (Flood) [18]: 0
3 | C#CCO/N=C(\c1cccc(/C=C\Cl)c1)c1c(O)c(C)nn(C)c1=O [Compound 264] | 30 | 60 | 50 | 70 | 20 | 50 | 40 | 60 | 0 | 70 | 10 | 0 | 40 | 60 | 40 | 70 | 10 | 60 | 10 | 50 | Ragweed plant response rating (0 to 100 scale) ([10]; 31 g ai/ha): 0; Ragweed plant response rating (0 to 100 scale) ([10]; 125 g ai/ha): 30; Ryegrass, Italian plant response rating (0 to 100 scale) ([11]; 31 g ai/ha): 0; Ryegrass, Italian plant response rating (0 to 100 scale) ([11]; 125 g ai/ha): 90; Pigweed plant response rating (0 to 100 scale) ([12]; 31 g ai/ha): 0; Pigweed plant response rating (0 to 100 scale) ([12]; 125 g ai/ha): 30; Kochia plant response rating (0 to 100 scale) (kochia (Bassia scoparia) [13]; 31 g ai/ha): 0; Kochia plant response rating (0 to 100 scale) (kochia (Bassia scoparia) [13]; 125 g ai/ha): 0; Foxtail, Giant plant response rating (0 to 100 scale) ([14]; 31 g ai/ha): 0; Foxtail, Giant plant response rating (0 to 100 scale) ([14]; 125 g ai/ha): 20; Barnyardgrass plant response rating (0 to 100 scale) ([15]; 31 g ai/ha): 0; Barnyardgrass plant response rating (0 to 100 scale) ([15]; 125 g ai/ha): 0; Plant response rating, Sedge, Umbrella (Flood) [16]: 0; Plant response rating, Rice (Flood) (rice (Oryza sativa)): 0; Plant response rating, Ducksalad (Flood) [17]: 0; Plant response rating, Barnyardgrass (Flood) [18]: 0
